Experimental data published in PMC3062105 (Clinical infectious diseases : an official publication of …, 2011).
Several values for one entry are separate records, joined by “and”; a condition that tells them apart may be missing. Equal values may be shown once.

Test system: influenza viruses
Set-up: species or system human (pediatric influenza patients)
Conditions: human, in vivo

SMILES	Virus isolation rate from specimens
CCOC(=O)C1=C[C@@H](OC(CC)CC)[C@H](NC(C)=O)[C@@H](N)C1 [oseltamivir]	68% and 69%
CC(=O)N[C@H]1[C@H]([C@H](O)[C@H](O)CO)OC(C(=O)O)=C[C@@H]1N=C(N)N [zanamivir]	50% and 39%
